# Source: ChEMBL document CHEMBL1250527, “Chalcone glycosides isolated from aerial parts of Brassica rapa L. 'hidabeni' suppress antigen-stimulated degranulation in rat basophilic leukemia RBL-2H3 cells” (Bioorg Med Chem, 2010)
# The source made the active and inactive calls. The rule behind the calls is not given here.
# Columns and labels:
# RBL-2H3 [1] = experiment: Inhibition of NOX-mediated calcium in rat RBL2H3 cells mobilization assessed as antigen-IgE-mediated degranulation; assay type: cell-based
# RBL-2H3 [2] = experiment: Antiallergic activity against antigen-IgE-mediated degranulation in rat RBL2H3 cells assessed as inhibition of DNP-BSA-induced beta-hexosaminidase release at 10 to 100 uM; assay type: functional, cell-based
# RBL-2H3 [3] = experiment: Antiallergic activity against antigen-IgE-mediated degranulation in rat RBL2H3 cells assessed as inhibition of DNP-BSA-induced intracellular pathway at 50 uM after 30 mins; assay type: functional, cell-based
# RBL-2H3 [4] = experiment: Antiallergic activity against antigen-IgE-mediated degranulation in rat RBL2H3 cells assessed as reduction in DNP-BSA-induced intracellular calcium level at 50 uM after 30 mins; assay type: functional, cell-based
# RBL-2H3 [5] = experiment: Antioxidant activity […] assessed as DPPH radical scavenging activity; assay type: functional
# RBL-2H3 [6] = experiment: Antiallergic activity against antigen-IgE-mediated degranulation in rat RBL2H3 cells assessed as inhibition of translocation of p47phox cytosolic subunit of NADPH oxidase by immunofluorescence technique; assay type: functional, cell-based
# RBL-2H3 [7] = experiment: Antiallergic activity against antigen-IgE-mediated degranulation in rat RBL2H3 cells assessed as inhibition of translocation of cytosolic subunit of NADPH oxidase by immunofluorescence technique; assay type: functional, cell-based
# RBL-2H3 [8] = experiment: Antiallergic activity against antigen-IgE-mediated degranulation in rat RBL2H3 cells assessed as reduction in DNP-BSA-induced ROS production at 50 uM after 30 mins; assay type: functional, cell-based
SMILES,inhibition (RBL-2H3 [1]),Activity (RBL-2H3 [2]),Activity (RBL-2H3 [3]),Activity (RBL-2H3 [4]),Activity (RBL-2H3 [5]),Activity (RBL-2H3 [6]),Activity (RBL-2H3 [7]),Activity (RBL-2H3 [8])
COc1cc(C(=O)/C=C/c2ccc(O)cc2)ccc1O[C@@H]1O[C@H](CO)[C@@H](O)[C@H](O)[C@H]1O,Active,Active,Active,Active,inactive,Active,Active,Active
COc1ccc(/C=C/C(=O)c2ccc(O[C@@H]3O[C@H](CO)[C@@H](O)[C@H](O)[C@H]3O)c(OC)c2)cc1,Active,Active,Active,Active,inactive,Active,Active,Active
